Test results from patent US6787128B2, “Structure-improving hair care agents” (Henkel Kommanditgesellschaft auf Aktien, priority 2000, dated 2004).
Marks after values point to notes of the source that are not given here.

Key:
[1] = system: Human hair (Alkinco 6633); assay: HP-DSC keratin melting point of permanent-waved hair after 1% aqueous active substance, Alkinco 6633; details: for Keratin melting point for Alkinco 6633: permanent-waved hair, treated 10 mins. with 1% aqueous solution of active substance, rinsed, dried
Description: (§1) HP-DSC (High-Pressure Differential Scanning Calorimetry)
Thermoanalytical investigations are particularly suitable for characterizing two-phase systems to which human hair fibers as fibrous keratins with their crystalline α-helix component and amorphous matrix component also belong. On the one hand, glass transitions and aging behavior of the amorphous matrix can be investigated, on the other hand the melting behavior of the crystalline helical phase provides important information. Thermoanalytical studies were described for the first time in 1899. The first differential thermoanalyses (DTA) of protein fibers were carried out towards the end of the fifties (F. Schwenker, J. H. Dusenbury, Text. Res. J. […], 30, pages 800 et seq; W. D. Felix, M. A. McDowall, H. Eyring, ibid. (1963), 33, pages 465 et seq). In the following years, various thermoanalytical measuring techniques, such as DTA, HP-DTA (high-pressure DTA) and DSC (differential scanning calorimetry) were applied to keratin fibers, for example to investigate the phenomenon of supercontraction, α-β-phase transitions of the helices or denaturing processes. Recently, the method of IIP-DSC was used to study keratin fibers, more particularly at the Deutsches Wollforschungsinstitut (German Wool Research Institute) in Aachen (F. J. Wortmann, H. Deutz, J. Appl. Polym. Sci. 1993, 48, pp. 137 et seq.). IIP-DSC rules out the problems associated with pyrolytic effects which occur in conventional DSC and the problems with data acquisition and interpretation by which DTA is attended. DSC measurements are carried out on keratins which are encapsulated with water in commercially obtainable pressure-tight measuring capsules. In the keratin/water system, a high water vapor pressure from which the HP-DSC analysis derives builds up in the encapsulated steel crucibles on heating to >100° C. The crucial difference between the HP-DSC thermograms of human hair fibers and normal DSC thermograms is that the endothermal peaks which reproduce the transition point and the transition enthalpy are shifted by ca. 90° C. to lower temperatures. This derives from the fact that, after diffusing into the hair fibers, the water reduces protein stability by weakening and splitting hydrogen bridge bonds and salt bonds so that the “gluing temperature” of the keratins is reduced. If only hydrogen bridges and salt bridges are dissolved by the supercontracting agent, such as water, the thermal effect is reversible (supercontraction). However, the process becomes irreversible when covalent bonds, such as disulfide bridges for example, are split. […]
(§2) Accordingly, both structural and chemical states and changes in fiber keratins and particularly in human hair fibers can be detected by dynamic differential scanning calorimetry (DSC). Under precisely defined test conditions, the processes detectable by calorimetry in human hair fibers can be recorded in the form of thermograms and used in regard to peak positions, structures and areas as an indicator for influencing order/disorder transitions through changes in inner and/or outer parameters produced, for example, by cosmetic treatment of the hair fibers. In other words, information on the strength of or damage to human hair fibers can be obtained from the endothermal peaks recorded in the thermogram of human hair fibers on the basis of peak position (transition point) and peak area (transition enthalpy). […]

[2] = system: Human hair (Alkinco 6634); assay: HP-DSC keratin melting point of permanent-waved hair after 1% aqueous active substance, Alkinco 6634; details: treated 10 mins. with 1% aqueous solution of active substance, rinsed, dried
Description: as §1
(§3) Thermoanalytical investigations are particularly suitable for characterizing two-phase systems to which human hair fibers as fibrous keratins with their crystalline α-helix component and amorphous matrix component also belong. On the one hand, glass transitions and aging behavior of the amorphous matrix can be investigated, on the other hand the melting behavior of the crystalline helical phase provides important information. Thermoanalytical studies were described for the first time in 1899. The first differential thermoanalyses (DTA) of protein fibers were carried out towards the end of the fifties (F. Schwenker, J. H. Dusenbury, Text. Res. J. 1963, 30, pages 800 et seq; W. D. Felix, M. A. McDowall, H. Eyring, ibid. (1963), 33, pages 465 et seq). In the following years, various thermoanalytical measuring techniques, such as DTA, HP-DTA (high-pressure DTA) and DSC (differential scanning calorimetry) were applied to keratin fibers, for example to investigate the phenomenon of supercontraction, α-β-phase transitions of the helices or denaturing processes. Recently, the method of IIP-DSC was used to study keratin fibers, more particularly at the Deutsches Wollforschungsinstitut (German Wool Research Institute) in Aachen (F. J. Wortmann, H. Deutz, J. Appl. Polym. Sci. 1993, 48, pp. 137 et seq.). IIP-DSC rules out the problems associated with pyrolytic effects which occur in conventional DSC and the problems with data acquisition and interpretation by which DTA is attended. DSC measurements are carried out on keratins which are encapsulated with water in commercially obtainable pressure-tight measuring capsules. In the keratin/water system, a high water vapor pressure from which the HP-DSC analysis derives builds up in the encapsulated steel crucibles on heating to >100° C. […]
as §2

[3] = Fastness to washing of oxidation hair color, overall color difference DE* after 6 washes; parameters: species or system human; details: colored (Poly Diadem 718), 5 mins. rinse (Application Example 3.2) containing 2% active substance, washed 6x, smaller DE* = higher fastness
Protocol: Human hair fibers (Kerling Naturweiβ) were used. The hair fibers were intentionally damaged at their tips (2× blonding and 2× permanent waving) in order to simulate seriously damaged hair. […] After rinsing and drying, […] measurements (hair shafts and tips separated) were carried out and were repeated after 6 washes. […] The smaller DE* is, the smaller the loss of color by shampooing and the higher the fastness to washing.

[4] = system: Human hair (Alkinco 6634); assay: HP-DSC keratin melting point after aftertreatment with conditioner (Application Example 3.1) containing pyridoxine in various concentrations
Description: as §1, §3, §2

| SMILES | Keratin melting point for Alkinco 6633 [1] | Keratin melting point for Alkinco 6634 [2] [°C] | DE* for normal weathered shafts [3] | DE* for seriously damaged tips ([3]; tips damaged 2x blonding and 2x permanent waving) | Keratin melting point Alkinco 6634 ([4]; conditioner (Application Example 3.1) + 0.2% vitamin B6, 2 mins. aftertreatment of permanent-waved hair) [°C] | Keratin melting point Alkinco 6634 ([4]; conditioner (Application Example 3.1) + 0.5% vitamin B6, 2 mins. aftertreatment of permanent-waved hair) [°C] | Keratin melting point Alkinco 6634 ([4]; conditioner (Application Example 3.1) + 1.0% vitamin B6, 2 mins. aftertreatment of permanent-waved hair) [°C] | significance of (re)structuring effect by comparison with the reference sample ([4]; conditioner + 0.2% vitamin B6, Alkinco 6634) | increase in melting point ([1]; Alkinco 6633, 1% in water, versus permanent-waved reference sample, not statistically highly significant) [°C] |
| --- | --- | --- | --- | --- | --- | --- | --- | --- | --- |
| Cc1ncc(CO)c(C=O)c1O [Pyridoxal, pyridoxal] | 147.7 °C | 152 | – | – | – | – | – | – | – |
| Cc1ncc(COP(=O)(O)O)c(C=O)c1O [Pyridoxal-5-phosphate, pyridoxal-5′-phosphate] | 148.3 °C | 152.7 | – | – | – | – | – | – | – |
| Cc1ncc(CO)c(CN)c1O [Pyridoxamine, pyridoxamine] | 147.9 °C | 152.2 | – | – | – | – | – | – | – |
| Cc1ncc(CO)c(CO)c1O [Pyridoxine, pyridoxine] | 144* ° C. | 152.1 | 1.8 | 5.8 | 146.2 | 146.5 | 147.4 | satistically significant | 0.5 |
